# Assay results taken from US20230356105A1, “TETRAAZADODECANE BASED CHELATING AGENTS FOR SEPARATION OF RARE EARTH ELEMENTS AND METHOD THEREFOR” (Ustav Organicke Chemie a Biochemie AV CR V.V.I., priority 2020, published 2023).
# Columns and labels:
# [1] = Separation of industrially relevant binary mixtures by precipitation using L1, L2 and L3 (Example 10); type: physicochemical; settings: supernatant
# Procedure: Analogous to Example 7), three sets of reaction mixtures with two metals and either compound L1, L2, or L3 were prepared in a 96-well plate with the following differences: each well was equipped with one PTFE-coated magnetic stir bar, the well plate was sealed with a silicon cover, and the reaction mixtures were stirred on a magnetic stirrer for 2 days at room temperature. Analogous to Example 7), the well plate was then centrifuged and concentrations of the metals were determined using ICP-OES. […] It is evident from the results that certain degrees of enrichment are achieved for very different combinations of metals, and that ligands L1, L2, and L3 have different selectivities for given combinations of metals.
# [2] = Use of additives to improve separation of Nd/Dy mixture by precipitation with L5 (Example 18); type: physicochemical; settings: 11 mM L5
# Procedure: Stock solutions were pipetted into plastic 1×1 cm cuvettes to prepare reaction mixtures with concentrations as follows: • 1. […] 5 mM NdCl3 • 3. 5 mM DyCl3 • 4. 500 mM MOPS pH=7 • 5. the additive of interest, in a variable concentration; if possible, stock solutions were prepared from Na^+ salt forms of the compound; if not, the stock solutions were titrated by NaOH/HCl to pH=7 prior to addition (see Table 12 for additives and concentrations)
# These aqueous reaction mixtures, each prepared to a total volume of 2.0 mL with the addition of water as necessary, were mixed by the use of a PTFE-coated stir bar on a magnetic stirrer. The cuvettes were sealed with transparent tape to prevent evaporation overnight. The reaction mixtures were stirred for 18 hours, at which point 500 μL aliquots of each reaction mixture were transferred into plastic 2 mL Eppendorf tubes and centrifuged. The supernatants were carefully pipetted out and transferred to a new set of tubes. The precipitate was dissolved by addition of 500 μL 1M HCl. The absolute concentration of Nd and Dy in each supernatant and precipitate was determined by ICP-OES.
structure (smiles),measurement,setting,value
"O=C(O)CN1CCNCCN(CC(=O)O)CCN(Cc2ccc(C(=O)O)cc2)CC1 [L3, 2,2′-(4-(4-carboxybenzyl)-1,4,7,10-tetraazacyklododekane-1,7-diyl)Diacetic Acid]",[mM] M1,[1]; M1/M2=Eu/Y,0.016 mM
same,[mM] M2,[1]; M1/M2=Eu/Y,0.076 mM
same,[mM] M1,[1]; M1/M2=La/Ce,0.111 mM
same,[mM] M2,[1]; M1/M2=La/Ce,0.036 mM
same,[mM] M1,[1]; M1/M2=Nd/Ce,0.000 mM
same,[mM] M2,[1]; M1/M2=Nd/Ce,0.745 mM
same,[mM] M1,[1]; M1/M2=Nd/Dy,0.000 mM
same,[mM] M2,[1]; M1/M2=Nd/Dy,0.025 mM
same,[mM] M1,[1]; M1/M2=Nd/La,0.000 mM
same,[mM] M2,[1]; M1/M2=Nd/La,0.102 mM
same,[mM] M1,[1]; M1/M2=Nd/Pr,0.000 mM
same,[mM] M2,[1]; M1/M2=Nd/Pr,0.016 mM
same,[mM] M1,[1]; M1/M2=Nd/Tb,0.008 mM
same,[mM] M2,[1]; M1/M2=Nd/Tb,0.008 mM
same,[mM] M1,[1]; M1/M2=Pr/Ce,0.060 mM
same,[mM] M2,[1]; M1/M2=Pr/Ce,0.021 mM
same,[mM] M1,[1]; M1/M2=Pr/Dy,0.018 mM
same,[mM] M2,[1]; M1/M2=Pr/Dy,0.034 mM
same,[mM] M1,[1]; M1/M2=Pr/La,0.014 mM
same,[mM] M2,[1]; M1/M2=Pr/La,0.098 mM
same,[mM] M1,[1]; M1/M2=Tb/Dy,0.010 mM
same,[mM] M2,[1]; M1/M2=Tb/Dy,0.027 mM
same,[mM] M1,[1]; M1/M2=Tb/Eu,0.018 mM
same,[mM] M2,[1]; M1/M2=Tb/Eu,0.017 mM
same,[mM] M1,[1]; M1/M2=Tb/Pr,0.015 mM
same,[mM] M2,[1]; M1/M2=Tb/Pr,0.018 mM
same,[mM] M1,[1]; M1/M2=Tb/Y,0.018 mM
same,[mM] M2,[1]; M1/M2=Tb/Y,0.078 mM
O=[N+]([O-])O [nitrate],Precipitate concentration [mM] Dy,[2]; additive 100 mM,4.27 mM
same,Precipitate concentration [mM] Nd,[2]; additive 100 mM,4.39 mM
same,Supernatant concentration [mM] Dy,[2]; additive 100 mM,0.36 mM
same,Supernatant concentration [mM] Nd,[2]; additive 100 mM,0.14 mM
same,Precipitate concentration [mM] Dy,[2]; additive 200 mM,3.89 mM
same,Precipitate concentration [mM] Nd,[2]; additive 200 mM,3.97 mM
same,Supernatant concentration [mM] Dy,[2]; additive 200 mM,0.41 mM
same,Supernatant concentration [mM] Nd,[2]; additive 200 mM,0.15 mM
same,Precipitate concentration [mM] Dy,[2]; additive 500 mM,4.16 mM
same,Precipitate concentration [mM] Nd,[2]; additive 500 mM,4.46 mM
same,Supernatant concentration [mM] Dy,[2]; additive 500 mM,0.82 mM
same,Supernatant concentration [mM] Nd,[2]; additive 500 mM,0.14 mM
same,Precipitate concentration [mM] Dy,[2]; additive 1000 mM,3.23 mM
same,Precipitate concentration [mM] Nd,[2]; additive 1000 mM,4.61 mM
same,Supernatant concentration [mM] Dy,[2]; additive 1000 mM,1.72 mM
same,Supernatant concentration [mM] Nd,[2]; additive 1000 mM,0.15 mM
O=S(=O)(O)O [sulfate],Precipitate concentration [mM] Dy,[2]; additive 100 mM,4.52 mM
same,Precipitate concentration [mM] Nd,[2]; additive 100 mM,4.90 mM
same,Supernatant concentration [mM] Dy,[2]; additive 100 mM,0.34 mM
same,Supernatant concentration [mM] Nd,[2]; additive 100 mM,0.07 mM
same,Precipitate concentration [mM] Dy,[2]; additive 250 mM,4.09 mM
same,Precipitate concentration [mM] Nd,[2]; additive 250 mM,4.96 mM
same,Supernatant concentration [mM] Dy,[2]; additive 250 mM,0.47 mM
same,Supernatant concentration [mM] Nd,[2]; additive 250 mM,0.08 mM
same,Precipitate concentration [mM] Dy,[2]; additive 500 mM,3.57 mM
same,Precipitate concentration [mM] Nd,[2]; additive 500 mM,4.30 mM
same,Supernatant concentration [mM] Dy,[2]; additive 500 mM,1.00 mM
same,Supernatant concentration [mM] Nd,[2]; additive 500 mM,0.59 mM
same,Precipitate concentration [mM] Dy,[2]; additive 1000 mM,3.35 mM
same,Precipitate concentration [mM] Nd,[2]; additive 1000 mM,4.61 mM
same,Supernatant concentration [mM] Dy,[2]; additive 1000 mM,1.20 mM
same,Supernatant concentration [mM] Nd,[2]; additive 1000 mM,0.34 mM
